# Test results: publication PMC7565640 (Journal of Virology, 2020)
# “And” between values parts separate entries of the source, which are not always exact repeats. Equal values may be shown once. Where a name gives a salt, the structure may show the parent alone.
# Legend:
# SARS-CoV-2 [1] = type: cell-based; settings: read-out: IC50 (avg)
# SARS-CoV-2 [2] = type: cell-based
# SARS-CoV-2 [3] = type: cell-based; remark: listed apart in the source
# SARS-CoV spike = settings: cited from earlier work
# MERS-CoV spike = settings: cited from earlier work
# [4] = test system: clathrin-mediated endocytosis; settings: cited from earlier work
# Vero E6 cells = settings: read-out: CC50 (avg); 3 days
SMILES,IC50 (SARS-CoV-2 [1]),further results
CCN(CCO)CCCC(C)Nc1ccnc2cc(Cl)ccc12 (centres unmarked) [Hydroxychloroquine sulfate],11.2 µM,production of SARS-CoV-2 N and RdRp mRNA (SARS-CoV-2 [2]): inhibit production; infectious viral particle production of SARS-CoV-2 (TCID50) (SARS-CoV-2 [3]): can inhibit; time-of-addition: inhibitory activity on infectious-virus production (SARS-CoV-2 [3]; 24 h): some reduction in inhibitory activity
O=C1NCN(c2ccccc2)C12CCN(CCCC(c1ccc(F)cc1)c1ccc(F)cc1)CC2 [Fluspirilene],5.32 µM,–
CC(CN1c2ccccc2Sc2ccccc21)N(C)C (centres unmarked) [Promethazine hydrochloride],10.4 µM,–
CCN(CC)Cc1cc(Nc2ccnc3cc(Cl)ccc23)ccc1O [Amodiaquine dihydrochloride dihydrate],2.59 µM and 4.94 µM,–
Cc1ccc(NC(=O)c2ccc(CN3CCN(C)CC3)cc2)cc1Nc1nccc(-c2cccnc2)n1 [Imatinib mesylate],–,SARS-CoV spike-mediated entry (SARS-CoV spike): inhibits; MERS-CoV spike-mediated entry (MERS-CoV spike): inhibits
CN(C)CCCN1c2ccccc2Sc2ccc(Cl)cc21 [Chlorpromazine hydrochloride],4.03 µM,clathrin-mediated endocytosis [4]: inhibit; infectious viral particle production of SARS-CoV-2 (TCID50) (SARS-CoV-2 [3]): can inhibit
CCN(CC)CCCC(C)Nc1ccnc2cc(Cl)ccc12 (centres unmarked) [Chloroquine phosphate],46.8 µM,production of SARS-CoV-2 N and RdRp mRNA (SARS-CoV-2 [2]): inhibit production; infectious viral particle production of SARS-CoV-2 (TCID50) (SARS-CoV-2 [3]): can inhibit
CCN(CC)Cc1cc(Nc2ccnc3cc(Cl)ccc23)ccc1O [Amodiaquine hydrochloride],–,CC50 (Vero E6 cells): > 38.6 µM
CCN(CC)CCOc1ccc(C(O)(Cc2ccc(Cl)cc2)c2ccc(C)cc2)cc1 (centres unmarked) [Triparanol],6.41 µM,–
CCSc1ccc2c(c1)N(CCCN1CCN(C)CC1)c1ccccc1S2 [Thiethylperazine maleate],8.02 µM,–
CC(C)N1CCN(c2ccc(OCC3COC(Cn4cncn4)(c4ccc(Cl)cc4Cl)O3)cc2)CC1 (centres unmarked) [Terconazole],16.1 µM,–
OC(c1cc(C(F)(F)F)nc2c(C(F)(F)F)cccc12)C1CCCCN1 (centres unmarked) [Mefloquine hydrochloride],8.06 µM,–
